Measurements reported in PMC9115881, “Penicillin Derivatives Inhibit the SARS-CoV-2 Main Protease by Reaction with Its Nucleophilic Cysteine” (Journal of Medicinal Chemistry, 2022).
Entries after “also recorded” stand apart in the source; their conditions may differ.

Key:
SARS-CoV-2 M^pro [1] = biological target: T1, SARS-CoV-2 M^pro (Severe acute respiratory syndrome coronavirus 2, UniProt P0DTD1); assay: Protein-observed M^pro assay (SPE-MS), covalent modification; type: binding; settings: M^pro 2.0 μM, inhibitor 11 or 33 μM, 45 min
Description: Selected compounds were tested for reaction with M^pro using protein-observed MS to inform on their mechanism of inhibition (Figure 2). Initially, M^pro was incubated with a ∼6-fold excess of the penicillin sulfone ester for 45 min and then analyzed by MS. […] When the inhibitor concentration was increased to ∼17-fold to account for the possibility of modifying all 12 M^pro cysteine or other residues, only low levels of a second covalent M^pro modification by the inhibitors were observed (Figure 2A–C). No evidence for fragmentation of the inhibitors once bound to M^pro was accrued.
Solutions of the inhibitors (100% DMSO) were dry-dispensed across 384-well polypropylene assay plates (Greiner) (for 11 or 33 μM top concentrations) using an ECHO 550 acoustic dispenser (Labcyte). DMSO was used as a negative control. Each reaction was performed in technical duplicates. The enzyme mixture (50 μL/well), containing M^pro (2.0 μM) in buffer (20 mM HEPES, pH 7.5), was dispensed across the penicillin-containing 384-well assay plates with a multidrop dispenser (Thermo Fischer Scientific). The reaction mixture was incubated for 45 min at 20 °C under an ambient atmosphere prior to analysis by SPE-MS.
MS analyses were performed using a RapidFire RF 365 high-throughput sampling robot (Agilent) attached to an iFunnel Agilent 6550 accurate mass Q-TOF mass spectrometer using a C4 cartridge and the same parameters as described above, with the exception of the gas temperature that was reduced to 225 °C. Protein spectra were deconvoluted for the m/z range 850–1350 Da, with a resolution of 2 Da and with a 10–60 kDa cutoff using the MaxEnt1 function in Agilent MassHunter Version 7. The deconvoluted files were extracted as csv files, sorted using Enthought Canopy GUI, and normalized and plotted using GraphPad Prism 9.

[2] = biological target: T2, active site (Cys145) TPCK-blocked M^pro (Severe acute respiratory syndrome coronavirus 2, UniProt P0DTD1); assay: Protein-observed M^pro assay after preincubation with TPCK; type: binding, SARS-CoV-2; settings: M^pro 2.0 μM preincubated with TPCK 10 μM for 180 min, then inhibitor 60 min
T2 construct: employing SARS-CoV-2 M^pro (2.0 μM); made in house

SARS-CoV-2 M^pro [3] = biological target: T1, SARS-CoV-2 M^pro; assay: SPE-MS M^pro inhibition assay, 11mer peptide substrate; type: biochemical
SARS-CoV-2 M^pro [4] = biological target: T1, SARS-CoV-2 M^pro; settings: earlier SPE-MS M^pro assay; cited from earlier work
SARS-CoV-2 M^pro [5] = biological target: T1, SARS-CoV-2 M^pro; assay: biochemical; type: biochemical; settings: for IC50: 37mer substrate 2.0 μM, mean ± SD, n ≥ 2, read-out: IC50; for M^pro inhibition, result in words: SPE-MS inhibition assay
[6] = Table 1, compounds 15, 16: 11mer peptide as substrate, M^pro […], substrate 2.0 μM, read-out: IC50
[7] = Table 3, compounds 25c, 25g: 11mer peptide as substrate, M^pro […], substrate 2.0 μM, read-out: IC50

O=c1[nH]sc2ccccc12 [BIT, benzoisothiazolinone, reference compound]
covalent modification of M^pro by protein-observed MS (SARS-CoV-2 M^pro [1]): non-selectively undergoes covalent

CC1(C)[C@H](C(=O)OCc2ccccc2)N2C(=O)[C@@H](NC(=O)COc3ccccc3)[C@H]2S1(=O)=O [Compound 10, penicillin V sulfone benzyl ester]
covalent modification of M^pro by protein-observed MS (SARS-CoV-2 M^pro [1]): covalent reaction with Cys145; also recorded: covalent reaction with a single nucleophilic protein residue; also recorded: clear evidence for the covalent reaction
covalent reaction with TPCK-pretreated M^pro by protein-observed MS [2]: reaction is ablated by pretreatment of M^pro with the active site binding inhibitor TPCK; also recorded: do not efficiently react covalently
IC50 (SARS-CoV-2 M^pro [3]; Table S1, M^pro 0.15 μM, TSAVLQ/SGFRK-NH2 2.0 μM, technical duplicates n = 2, mean ± SD, read-out: IC50 [μM] (11mer peptide)): 8.7 ± 0.2 µM
M^pro inhibition, reported result in words (SARS-CoV-2 M^pro [4]): inhibits M^pro by reaction with the active site cysteine residue
IC50 (SARS-CoV-2 M^pro [5]; Table 1, M^pro […], 15 min preincubation): 6.6 ± 2.7 µM
IC50 (SARS-CoV-2 M^pro [5]; Table 3, M^pro […]): 6.6 ± 2.7 µM

CC1(C)[C@H](C(=O)OCc2ccccc2)N2C(=O)[C@@H](NC(=O)Cc3ccccc3)[C@H]2S1(=O)=O [Compound 11, penicillin G sulfone benzyl ester]
M^pro inhibition, reported result in words (SARS-CoV-2 M^pro [4]): inactive
M^pro inhibition, result in words (SARS-CoV-2 M^pro [5]): did not inhibit M^pro
IC50 (SARS-CoV-2 M^pro [5]; Table 3, M^pro […]): > 50 µM

CC1(C)[C@H](C(=O)OCc2ccccc2)N2C(=O)[C@H](NC(=O)COc3ccccc3)[C@H]2[S@@+]1[O-] [Compound 15, (6S)-penicillin V (S)-sulfoxide benzyl ester]
IC50 (SARS-CoV-2 M^pro [3]; [6]): > 50 µM

CC1(C)[C@H](C(=O)OCc2ccccc2)N2C(=O)[C@H](NC(=O)COc3ccccc3)[C@H]2S1(=O)=O [Compound 16, (6S)-penicillin V sulfone benzyl ester]
IC50 (SARS-CoV-2 M^pro [3]; [6]): > 50 µM

CC1(C)[C@H](C(=O)OCc2ccccc2)N2C(=O)[C@@H](NC(=O)COc3ccccc3)C[C@H]2S1(=O)=O [Compound 17]
covalent modification of M^pro by protein-observed MS (SARS-CoV-2 M^pro [1]): appears to inhibit M^pro via a different mechanism

CC1(C)[C@H](C(=O)OCc2ccccc2F)N2C(=O)[C@@H](NC(=O)COc3ccccc3)[C@H]2S1(=O)=O [Compound 20a]
covalent modification of M^pro by protein-observed MS (SARS-CoV-2 M^pro [1]): covalent reaction with Cys145
IC50 (SARS-CoV-2 M^pro [5]; Table 2, M^pro […]): 5.8 ± 2 µM

CC1(C)[C@H](C(=O)OCc2ccc(F)cc2)N2C(=O)[C@@H](NC(=O)COc3ccccc3)[C@H]2S1(=O)=O [Compound 20c]
covalent modification of M^pro by protein-observed MS (SARS-CoV-2 M^pro [1]): covalent reaction with Cys145
IC50 (SARS-CoV-2 M^pro [5]; Table 2, M^pro […]): 7.4 ± 2.3 µM

CCOC(=O)[C@@H]1N2C(=O)[C@@H](NC(=O)COc3ccccc3)[C@H]2S(=O)(=O)C1(C)C [Compound 20p]
covalent modification of M^pro by protein-observed MS (SARS-CoV-2 M^pro [1]): covalent reaction with Cys145
IC50 (SARS-CoV-2 M^pro [5]; Table 2, M^pro […]): 5.2 ± 0.6 µM

C#CCOC(=O)[C@@H]1N2C(=O)[C@@H](NC(=O)COc3ccccc3)[C@H]2S(=O)(=O)C1(C)C [Compound 20q]
covalent modification of M^pro by protein-observed MS (SARS-CoV-2 M^pro [1]): covalent reaction with Cys145; also recorded: covalent reaction with a single nucleophilic protein residue; also recorded: clear evidence for the covalent reaction
covalent reaction with TPCK-pretreated M^pro by protein-observed MS [2]: reaction is ablated by pretreatment of M^pro with the active site binding inhibitor TPCK; also recorded: do not efficiently react covalently
IC50 (SARS-CoV-2 M^pro [5]; Table 2, M^pro […]): 3 ± 0.4 µM

CC1(C)[C@H](C(=O)OCc2ccccc2)N2C(=O)[C@@H](NC(=O)OCc3ccccc3)[C@H]2S1(=O)=O [Compound 25a]
covalent modification of M^pro by protein-observed MS (SARS-CoV-2 M^pro [1]): do not covalently react with Cys145; also recorded: does not modify M^pro covalently; also recorded: but not 25a
M^pro inhibition, result in words (SARS-CoV-2 M^pro [5]): abolished M^pro inhibition
IC50 (SARS-CoV-2 M^pro [5]; Table 3, M^pro […]): > 50 µM

CC1(C)[C@H](C(=O)OCc2ccccc2)N2C(=O)[C@@H](NC(=O)CCc3ccccc3)[C@H]2S1(=O)=O [Compound 25b]
covalent modification of M^pro by protein-observed MS (SARS-CoV-2 M^pro [1]): do not covalently react with Cys145
IC50 (SARS-CoV-2 M^pro [5]; Table 3, M^pro […]): 45.7 ± 0.9 µM

Cc1onc(-c2c(Cl)cccc2Cl)c1C(=O)N[C@@H]1C(=O)N2[C@@H](C(=O)OCc3ccccc3)C(C)(C)S(=O)(=O)[C@H]12 [Compound 25c]
IC50 (SARS-CoV-2 M^pro [3]; [7]): > 50 µM

CC(C)C[C@H](NC(=O)OCc1ccccc1)C(=O)N[C@@H]1C(=O)N2[C@@H](C(=O)OCc3ccccc3)C(C)(C)S(=O)(=O)[C@H]12 [Compound 25f]
IC50 (SARS-CoV-2 M^pro [5]; Table 3, M^pro […]): > 50 µM

CCN1CCC(NC(=O)N[C@@H](C(=O)N[C@@H]2C(=O)N3[C@@H](C(=O)OCc4ccccc4)C(C)(C)S(=O)(=O)[C@H]23)c2ccccc2)C(=O)C1=O (some centres unmarked) [Compound 25g]
IC50 (SARS-CoV-2 M^pro [3]; [7]): > 50 µM

CC1(C)[C@H](C(=O)OCc2ccccc2)N2C(=O)[C@@H](NC(=O)COc3c(F)c(F)c(F)c(F)c3F)[C@H]2S1(=O)=O [Compound 25h]
M^pro inhibition, result in words (SARS-CoV-2 M^pro [5]): did not alter M^pro inhibition substantially
IC50 (SARS-CoV-2 M^pro [5]; Table 3, M^pro […]): 5.3 ± 3.3 µM

CC(Oc1ccccc1)C(=O)N[C@@H]1C(=O)N2[C@@H](C(=O)OCc3ccccc3)C(C)(C)S(=O)(=O)[C@H]12 (some centres unmarked) [Compound 25i]
M^pro inhibition, result in words (SARS-CoV-2 M^pro [5]): substantially reduced inhibition
IC50 (SARS-CoV-2 M^pro [5]; Table 3, M^pro […]): > 50 µM

CC(Oc1ccccc1)C(=O)N[C@@H]1C(=O)N2[C@@H](C(=O)OCc3ccc(F)cc3)C(C)(C)S(=O)(=O)[C@H]12 (some centres unmarked) [Compound 25j]
M^pro inhibition, result in words (SARS-CoV-2 M^pro [5]): substantially reduced inhibition
IC50 (SARS-CoV-2 M^pro [5]; Table 3, M^pro […]): > 50 µM

CC1(C)[C@H](C(=O)OCc2ccccc2)N2C(=O)[C@@H](NC(=O)COC3CCCCC3)[C@H]2S1(=O)=O [Compound 25m]
covalent modification of M^pro by protein-observed MS (SARS-CoV-2 M^pro [1]): covalent reaction with Cys145

CC1(C)[C@H](C(=O)OCc2ccccc2)N2C(=O)C(Br)(Br)[C@H]2S1(=O)=O [Compound 28, 6,6-dibromopenicillanic acid sulfone benzyl ester]
covalent modification of M^pro by protein-observed MS (SARS-CoV-2 M^pro [1]): initial covalent M^pro binding is followed by rapid subsequent reaction to give new species
IC50 (SARS-CoV-2 M^pro [5]; Table 4, M^pro 0.15 μM): ~0.6 µM

CC1(C)[C@H](C(=O)OCc2ccc([N+](=O)[O-])cc2)N2C(=O)C(Br)(Br)[C@H]2S1(=O)=O [Compound 31, 6,6-dibromopenicillanic acid sulfone para-nitrobenzyl ester]
covalent modification of M^pro by protein-observed MS (SARS-CoV-2 M^pro [1]): initial covalent M^pro binding is followed by rapid subsequent reaction to give new species

CC1(C)[C@H](C(=O)OCc2ccc([N+](=O)[O-])cc2)N2C(=O)C(Br)(Br)[C@H]2[S+]1[O-] (stereo partly drawn) [Compound 32, 6,6-dibromopenicillaic acid (R)-sulfoxide para-nitrobenzyl ester]
covalent modification of M^pro by protein-observed MS (SARS-CoV-2 M^pro [1]): initial covalent M^pro binding is followed by rapid subsequent reaction to give new species
IC50 (SARS-CoV-2 M^pro [5]; Table 4, M^pro 0.15 μM): ~0.6 µM

CC1(C)[C@H](C(=O)O)N2C(=O)C[C@H]2S1(=O)=O [Compound 33, sulbactam, reference compound]
M^pro inhibition, reported result in words (SARS-CoV-2 M^pro [4]): inability of sulbactam to inhibit M^pro

CC1(C)[C@H](C(=O)OCc2ccccc2)N2C(=O)C[C@H]2S1(=O)=O [Compound 34]
IC50 (SARS-CoV-2 M^pro [5]; Table 4, M^pro […]): > 50 µM
